These results are taken from PMC10726465, “Synthesis and Evaluation of Small Molecule Inhibitors of the Androgen Receptor N-Terminal Domain” (ACS Medicinal Chemistry Letters, 2023).

For series [1], the system named is prostate-specific antigen (PSA) expression. Nature of the series: Inhibition of hormone-dependent expression of PSA in VCaP cells (Western blot). The series is classed as cell-based. To be noted: 50 μM, 1 nM DHT, 24 h. (Immunoblotting shows a protein as a band on a membrane.)
Experimental: In addition to this, we evaluated hormone-dependent expression of prostate-specific antigen (PSA) in VCaP cells (see the Supporting Information).
(§1) VCaP cells, obtained from the American Type Culture Collection, were maintained in Dulbecco’s Modified Eagles Medium (DMEM) supplemented with 10% foetal bovine serum. Cells were maintained at 37°C without antibiotics in a humidified atmosphere
(§2) Inhibition of hormone-dependent expression of prostate specific antigen (PSA):
(§3) VCaP prostate cells were treated with 1 nM DHT in the absence or presence of inhibitor. After 24 hours cells were harvested and PSA detected by Western blotting and normalised against β-actin.
In the next series the target is T1, androgen receptor (AR) (Homo sapiens, UniProt P10275).
T1 sequence (P10275 1-920): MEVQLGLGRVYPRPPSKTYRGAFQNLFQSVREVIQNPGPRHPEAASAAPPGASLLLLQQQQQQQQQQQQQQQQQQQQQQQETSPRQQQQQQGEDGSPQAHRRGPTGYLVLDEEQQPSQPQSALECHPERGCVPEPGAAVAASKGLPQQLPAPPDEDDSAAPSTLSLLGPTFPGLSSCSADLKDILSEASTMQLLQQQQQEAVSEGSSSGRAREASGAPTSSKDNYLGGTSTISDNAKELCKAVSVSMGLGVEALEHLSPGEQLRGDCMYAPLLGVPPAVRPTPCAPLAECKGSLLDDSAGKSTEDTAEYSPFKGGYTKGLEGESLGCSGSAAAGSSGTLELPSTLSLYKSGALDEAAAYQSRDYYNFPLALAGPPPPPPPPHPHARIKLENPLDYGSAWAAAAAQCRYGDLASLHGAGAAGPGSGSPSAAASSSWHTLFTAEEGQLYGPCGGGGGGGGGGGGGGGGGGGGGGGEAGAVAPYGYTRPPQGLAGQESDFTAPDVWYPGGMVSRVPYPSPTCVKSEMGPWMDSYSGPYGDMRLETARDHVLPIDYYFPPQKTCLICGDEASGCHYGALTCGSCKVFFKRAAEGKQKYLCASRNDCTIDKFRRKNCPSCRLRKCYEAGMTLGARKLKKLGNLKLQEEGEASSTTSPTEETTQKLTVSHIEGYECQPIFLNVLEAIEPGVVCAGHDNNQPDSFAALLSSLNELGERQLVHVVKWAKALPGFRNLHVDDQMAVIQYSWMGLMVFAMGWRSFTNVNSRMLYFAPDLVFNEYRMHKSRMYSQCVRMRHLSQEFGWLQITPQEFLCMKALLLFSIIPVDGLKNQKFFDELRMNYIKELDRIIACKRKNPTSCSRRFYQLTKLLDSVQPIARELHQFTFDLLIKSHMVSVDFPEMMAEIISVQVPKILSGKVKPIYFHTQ
To be noted: for Ligand Efficiency (LE): from VCaP GRE2-luciferase IC50; for Lipophilic Ligand Efficiency (LLE): from VCaP GRE2-luciferase IC50 and cLogP.

[2] abbreviates: read-out: VCaP GRE2-luciferase IC50, VCaP cells, 1 nM DHT, 24 h, 0–30 µM compound.

Like-named read-outs stand apart in the source and are kept apart here.

Experimental for androgen receptor (AR): as §1
Transient transfection and Luciferase Activity Assay:
Cells at 70–80% confluence in 24 well plates, were transferred to DMEM
300ng/well of the firefly reporter plasmid, GRE2-TATA-luc using JetPEI (PolyPLUS Transfection) according to the manufacturers’ protocol.
replaced with fresh DMEM +5% CSS containing either DMSO (vehicle control) or 0– 30 µM small molecules together with 1nM DHT. Twenty four hours later, medium was aspirated, cells were washed with PBS and extracted with Passive Lysis Buffer
Cell debris was removed by centrifugation at 13,000 xg for 5min and supernatants collected. Luciferase activity was measured in triplicate, using an in-house luciferase assay buffer (13 mM MgSO4 7H2O, 30 mM
amount of total cellular protein.
as §2, §3
Luciferase activity in cells treated with small molecules was determined as a percentage of the untreated control, which was set at 100%. Plots of activity against small molecule concentration (log) were analysed in GraphPad PRISM 5 and IC50 values for each small molecule determined.

For `CC(C)(c1ccc(OCC(O)CO)cc1)c1ccc(OCC(O)CCl)cc1` (stereo not drawn) [EPI-001, reference compound], in series [1], the “PSA expression (% inhibition)” value came to 19%.

Regarding `Cn1ncc2cc(-c3cncc(C(N)=O)c3)ccc21` [Compound 36], at androgen receptor (AR), the “Ligand Efficiency (LE)” value came to 0.54 and the “Lipophilic Ligand Efficiency (LLE)” value came out at 6.7. In addition, the IC50 – broadly, the midpoint of a concentration-inhibition curve – at androgen receptor (AR) (setting [2]) is > 30 µM.

In the case of `CSc1ccc(C(N)=O)cc1-c1ccc2c(c1)CCO2` [Compound 27], at androgen receptor (AR), the “Ligand Efficiency (LE)” value was determined as 0.52 and the “Lipophilic Ligand Efficiency (LLE)” value is recorded as 4.4. Also, at androgen receptor (AR) (setting [2]), the IC50 is > 30 µM.

In the case of `CSc1ccc(C(N)=O)cc1-c1cccs1` [Compound 9], at androgen receptor (AR), the “Ligand Efficiency (LE)” value was found to be 0.79 and the “Lipophilic Ligand Efficiency (LLE)” value is reported as 6.3. The IC50 at androgen receptor (AR) (setting [2]) was determined as 0.6 µM.

With `CSc1ccc(C(=O)N2CCOCC2)cc1-c1cncnc1` [Compound 60], on androgen receptor (AR), the “Ligand Efficiency (LE)” value is 0.60. Also, on androgen receptor (AR) (setting [2]), the IC50 worked out at 0.26 µM.

For the molecule `COc1ccc(-c2cc(C(N)=O)ccc2SC)cc1OC` [Compound 28], the “activity in VCaP GRE2-luciferase assay (in words)” value (from here on “activity … (in words)”) on androgen receptor (AR) (VCaP cells, 1 nM DHT) is reported as “Activity was abolished”. Further, at androgen receptor (AR), the “Ligand Efficiency (LE)” value came to 0.49 and the “Lipophilic Ligand Efficiency (LLE)” value came to 4.8. Besides, the IC50 at androgen receptor (AR) (setting [2]) was > 30 µM.

Regarding `CSc1ccc(C(N)=O)cc1-c1ccc(F)c(O)c1` [Compound 33], on androgen receptor (AR), the “Ligand Efficiency (LE)” value was 0.72 and the “Lipophilic Ligand Efficiency (LLE)” value amounted to 7.3. Also, the IC50 at androgen receptor (AR) (setting [2]) is 0.12 µM.

With `Cn1ncc2cc(-c3cc(C(N)=O)ccc3OCc3ccccc3)ccc21` [Compound 47], on androgen receptor (AR), the “Ligand Efficiency (LE)” value was 0.38 and the “Lipophilic Ligand Efficiency (LLE)” value is given as 4.4. On androgen receptor (AR) (setting [2]), the IC50 is > 30 µM.

With `CSc1ccc(C(N)=O)cc1-c1ccc2[nH]cnc2c1` [Compound 15], on androgen receptor (AR), the “Ligand Efficiency (LE)” value amounted to 0.62 and the “Lipophilic Ligand Efficiency (LLE)” value turned out to be 6.6. Further, the IC50 on androgen receptor (AR) (setting [2]) was found to be 0.92 µM.

Regarding `CSc1ccc(C(N)=O)cc1-c1cncnc1` [Compound 24], at androgen receptor (AR), the “Ligand Efficiency (LE)” value amounted to 0.77 and the “Lipophilic Ligand Efficiency (LLE)” value turned out to be 8.2. The IC50 at androgen receptor (AR) (setting [2]) worked out at 0.27 µM.

Regarding `CSc1ccc(C(N)=O)cc1-c1ccc2[nH]ccc2c1` [Compound 13], the “decrease in activity relative to indazole 12” value on androgen receptor (AR) (VCaP GRE2-luciferase IC50 ratio) worked out at 10 fold. On androgen receptor (AR), the “Ligand Efficiency (LE)” value worked out at 0.54 and the “Lipophilic Ligand Efficiency (LLE)” value is listed as 5.1. Further, at androgen receptor (AR) (setting [2]), the IC50 was determined as 10.3 µM.

As to `Cn1ncc2cc(-c3cc(C(N)=O)ccc3NCCN3CCOCC3)ccc21` [Compound 54], on androgen receptor (AR), the “Ligand Efficiency (LE)” value is 0.37 and the “Lipophilic Ligand Efficiency (LLE)” value is reported as 6.4. Moreover, at androgen receptor (AR) (setting [2]), the IC50 is > 30 µM.

On to `Cn1ncc2cc(-c3cc(C(N)=O)ccc3SCc3ccccc3)ccc21` [Compound 40], for which, on androgen receptor (AR), the “Ligand Efficiency (LE)” value came to 0.44 and the “Lipophilic Ligand Efficiency (LLE)” value was 4.9. In addition, the IC50 on androgen receptor (AR) (setting [2]) came out at 2.2 µM.

On to `Cn1ncc2cc(-c3cc(C(N)=O)ccc3NCc3ccccc3)ccc21` [Compound 52], for which, on androgen receptor (AR), the “Ligand Efficiency (LE)” value came out at 0.46 and the “Lipophilic Ligand Efficiency (LLE)” value was 6.2. Also, the IC50 on androgen receptor (AR) (setting [2]) amounted to 0.94 µM.

For the molecule `CSc1ccc(C(N)=O)cc1-c1cc(O)cc(F)c1` [Compound 32], the “activity … (in words)” value at androgen receptor (AR) (VCaP cells, 1 nM DHT) is “inactive”. On androgen receptor (AR), the “Ligand Efficiency (LE)” value was found to be 0.54 and the “Lipophilic Ligand Efficiency (LLE)” value amounted to 4.9. Further, the IC50 on androgen receptor (AR) (setting [2]) was > 30 µM.

On to `CSc1ccc(C(N)=O)cc1-c1ccccc1` [Compound 8], for which the “activity … (in words)” value at androgen receptor (AR) (VCaP cells, 1 nM DHT) is “inactive”. In addition, on androgen receptor (AR), the “Ligand Efficiency (LE)” value came to 0.61 and the “Lipophilic Ligand Efficiency (LLE)” value is given as 4.6. For the same molecule, at androgen receptor (AR) (setting [2]), the IC50 was > 30 µM.

`CSc1ccc(C(N)=O)cc1-c1ccc2cnccc2c1` [Compound 21]: on androgen receptor (AR), the IC50 came to 0.9 µM, the “Ligand Efficiency (LE)” value is given as 0.59 and the “Lipophilic Ligand Efficiency (LLE)” value came to 6.0.

`CSc1ccc(C(N)=O)cc1-c1ccc2ocnc2c1` [Compound 26]: at androgen receptor (AR), the “Ligand Efficiency (LE)” value was 0.52 and the “Lipophilic Ligand Efficiency (LLE)” value is reported as 4.6. On androgen receptor (AR) (setting [2]), the IC50 was > 30 µM.

As to `CSc1ccc(C(=O)O)cc1-c1cncnc1` [Compound 58], at androgen receptor (AR), the “Ligand Efficiency (LE)” value is listed as 0.80 and the “Lipophilic Ligand Efficiency (LLE)” value came out at 8.2. Also, on androgen receptor (AR) (setting [2]), the 50% inhibitory concentration (IC50) was determined as 0.12 µM.

Regarding `COc1ccc(-c2cc(C(N)=O)ccc2SC)cc1F` [Compound 29], at androgen receptor (AR), the “Ligand Efficiency (LE)” value stood at 0.63 and the “Lipophilic Ligand Efficiency (LLE)” value is reported as 6.2. The 50% inhibitory concentration (IC50) on androgen receptor (AR) (setting [2]) is 0.76 µM.

On to `CSc1ccc(C(N)=O)cc1-c1ccc2nccn2c1` [Compound 18], for which the “activity … (in words)” value at androgen receptor (AR) (VCaP cells, 1 nM DHT) is “no activity”. At androgen receptor (AR), the “Ligand Efficiency (LE)” value was 0.52 and the “Lipophilic Ligand Efficiency (LLE)” value was found to be 5.7. Besides, the IC50 on androgen receptor (AR) (setting [2]) is > 30 µM.

Take `CC(C)COc1ccc(C(N)=O)cc1-c1ccc2c(cnn2C)c1` [Compound 51]: at androgen receptor (AR) (VCaP cells, 1 nM DHT), the “activity … (in words)” value was “inactive”. Further, at androgen receptor (AR), the “Ligand Efficiency (LE)” value is 0.43 and the “Lipophilic Ligand Efficiency (LLE)” value is on record as 4.7. The IC50 on androgen receptor (AR) (setting [2]) is > 30 µM.

Consider `CSc1ccc(C(N)=O)cc1-c1cccc2c1CC(=O)N2` [Compound 19], for which, at androgen receptor (AR) (VCaP cells, 1 nM DHT), the “activity … (in words)” value was “no activity”. At androgen receptor (AR), the “Ligand Efficiency (LE)” value is reported as 0.49 and the “Lipophilic Ligand Efficiency (LLE)” value is given as 5.5. Besides, the IC50 at androgen receptor (AR) (setting [2]) was > 30 µM.

For `CSc1ccc(C(N)=O)cc1-c1ccc2[nH]ncc2c1` [Compound 12], at androgen receptor (AR), the “Ligand Efficiency (LE)” value turned out to be 0.59 and the “Lipophilic Ligand Efficiency (LLE)” value is listed as 6.6. The IC50 at androgen receptor (AR) (setting [2]) was found to be 0.7 µM.
